From patent US20110152099A1, “BIOACTIVE COMPOUNDS OF ASCOPHYLLUM NODOSUM AND THEIR USE FOR ALLEVIATING SALT-INDUCED STRESS IN PLANTS” (priority 2008, published 2011)

Test system: plants under salt stress
Assay: Root length under salt stress
Format: in vivo
Conditions: compared to +Na untreated plants
Excerpt: The code numbers in FIG. 18 refer to different organic extracts.

## C/C=C(/CCC(C)C1CCC2C3CC=C4CC(O)CCC4(C)C3CCC12C)C(C)C (stereo not shown) [fucosterol, 24-ethylidene cholesterol]
  root length: longer root length
